# From publication PMC2949283 (The Biochemical journal, 2009)
# Read-outs that look alike come from different tables or passages of the source.
# Tests used:
# Type in all cases: biochemical
# W86A HuAChE = W86A HuAChE (Homo sapiens, UniProt P22303, W117A); assay: HuAChE inhibition kinetics
# Wild Type HuAChE = Wild Type HuAChE (Homo sapiens, UniProt P22303); assay: HuAChE inhibition kinetics
# F338A HuAChE = F338A HuAChE (Homo sapiens, UniProt P22303, F369A); assay: HuAChE inhibition kinetics
# Y337A HuAChE = Y337A HuAChE (Homo sapiens, UniProt P22303, Y368A); assay: HuAChE inhibition kinetics
# Chain of Y337A HuAChE (P22303 32-614 Y368A): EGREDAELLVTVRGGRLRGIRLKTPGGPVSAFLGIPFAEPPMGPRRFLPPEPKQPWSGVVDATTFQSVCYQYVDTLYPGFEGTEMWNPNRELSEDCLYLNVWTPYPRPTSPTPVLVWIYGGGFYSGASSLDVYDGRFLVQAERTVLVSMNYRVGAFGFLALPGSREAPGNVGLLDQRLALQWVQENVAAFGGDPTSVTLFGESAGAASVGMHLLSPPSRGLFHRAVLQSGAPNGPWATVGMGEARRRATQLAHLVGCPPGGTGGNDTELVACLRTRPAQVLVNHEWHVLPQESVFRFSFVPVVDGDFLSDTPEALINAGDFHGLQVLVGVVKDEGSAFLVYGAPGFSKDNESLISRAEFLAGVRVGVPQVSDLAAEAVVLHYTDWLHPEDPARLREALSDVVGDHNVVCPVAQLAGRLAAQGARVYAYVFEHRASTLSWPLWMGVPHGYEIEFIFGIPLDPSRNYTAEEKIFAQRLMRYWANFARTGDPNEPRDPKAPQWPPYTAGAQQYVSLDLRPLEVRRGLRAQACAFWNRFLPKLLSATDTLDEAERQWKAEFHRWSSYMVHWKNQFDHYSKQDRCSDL
# E202A HuAChE = E202A HuAChE (Homo sapiens, UniProt P22303, E233A); assay: HuAChE inhibition kinetics; details: for k2, carbamylation rate constant: E202A HuAChE
# Chain of E202A HuAChE (P22303 32-614 E233A): as the sequence (P22303 32-614 Y368A) above, with E202A, A337Y counted along it
# F295A HuAChE = F295A HuAChE (Homo sapiens, UniProt P22303, F326A); assay: HuAChE inhibition kinetics; details: for k2, carbamylation rate constant: F295A HuAChE
# Chain of F295A HuAChE (P22303 32-614 F326A): as the sequence (P22303 32-614 Y368A) above, with F295A, A337Y counted along it
# Y133F HuAChE = Y133F HuAChE (Homo sapiens, UniProt P22303, Y164F); assay: HuAChE inhibition kinetics; details: for k2, carbamylation rate constant: Y133F HuAChE
# Chain of Y133F HuAChE (P22303 32-614 Y164F): as the sequence (P22303 32-614 Y368A) above, with Y133F, A337Y counted along it
# F295L/F297V HuAChE = F295L/F297V HuAChE (Homo sapiens, UniProt P22303, F326L/F328V); assay: HuAChE inhibition kinetics; details: for k2, carbamylation rate constant: F295L/F297V HuAChE
# Chain of F295L/F297V HuAChE (P22303 32-614 F326L/F328V): as the sequence (P22303 32-614 Y368A) above, with F295L, F297V, A337Y counted along it
# W86F HuAChE = W86F HuAChE (Homo sapiens, UniProt P22303, W117F); assay: HuAChE inhibition kinetics; details: for k2, carbamylation rate constant: W86F HuAChE
# Chain of W86F HuAChE (P22303 32-614 W117F): as the sequence (P22303 32-614 Y368A) above, with W86F, A337Y counted along it
# E450A HuAChE = E450A HuAChE (Homo sapiens, UniProt P22303, E481A); assay: HuAChE inhibition kinetics; details: for k2, carbamylation rate constant: E450A HuAChE
# Chain of E450A HuAChE (P22303 32-614 E481A): as the sequence (P22303 32-614 Y368A) above, with A337Y, E450A counted along it
# D74N HuAChE = D74N HuAChE (Homo sapiens, UniProt P22303, D105N); assay: HuAChE inhibition kinetics; details: for k2, carbamylation rate constant: D74N HuAChE
# Chain of D74N HuAChE (P22303 32-614 D105N): as the sequence (P22303 32-614 Y368A) above, with D74N, A337Y counted along it
# Y72N HuAChE = Y72N HuAChE (Homo sapiens, UniProt P22303, Y103N); assay: HuAChE inhibition kinetics; details: for k2, carbamylation rate constant: Y72N HuAChE
# Chain of Y72N HuAChE (P22303 32-614 Y103N): as the sequence (P22303 32-614 Y368A) above, with Y72N, A337Y counted along it
# F297A HuAChE = F297A HuAChE (Homo sapiens, UniProt P22303, F328A); assay: HuAChE inhibition kinetics; details: F297A HuAChE
# Chain of F297A HuAChE (P22303 32-614 F328A): as the sequence (P22303 32-614 Y368A) above, with F297A, A337Y counted along it
# F295L/F297V/Y337A HuAChE = F295L/F297V/Y337A HuAChE (Homo sapiens, UniProt P22303, F326L/F328V/Y368A); assay: HuAChE inhibition kinetics; details: for k2, carbamylation rate constant: F295L/F297V/Y337A HuAChE
# Chain of F295L/F297V/Y337A HuAChE (P22303 32-614 F326L/F328V/Y368A): as the sequence (P22303 32-614 Y368A) above, with F295L, F297V counted along it
# Y337F HuAChE = Y337F HuAChE (Homo sapiens, UniProt P22303, Y368F); assay: HuAChE inhibition kinetics; details: for k2, carbamylation rate constant: Y337F HuAChE
# Chain of Y337F HuAChE (P22303 32-614 Y368F): as the sequence (P22303 32-614 Y368A) above, with A337F counted along it
# Y133A HuAChE = Y133A HuAChE (Homo sapiens, UniProt P22303, Y164A); assay: HuAChE inhibition kinetics; details: for k2, carbamylation rate constant: Y133A HuAChE
# Chain of Y133A HuAChE (P22303 32-614 Y164A): as the sequence (P22303 32-614 Y368A) above, with Y133A, A337Y counted along it
# [1] = biological target: Y72N/Y124Q/W286A/ F295L/F297V/Y337A HuAChE (Homo sapiens, UniProt P22303, F326L/F328V/W317A/Y103N/Y155Q/Y368A); assay: HuAChE inhibition kinetics
# Chain of Y72N/Y124Q/W286A/ F295L/F297V/Y337A HuAChE (P22303 32-614 Y103N/Y155Q/W317A/F326L/F328V/Y368A): as the sequence (P22303 32-614 Y368A) above, with Y72N, Y124Q, W286A, F295L, F297V counted along it
# HuBChE-Wild Type = HuBChE-Wild Type (Homo sapiens, UniProt P06276); assay: HuBChE inhibition kinetics; details: for k2, carbamylation rate constant: HuBChE-Wild Type
# Chain of HuBChE-Wild Type (P06276 29-602): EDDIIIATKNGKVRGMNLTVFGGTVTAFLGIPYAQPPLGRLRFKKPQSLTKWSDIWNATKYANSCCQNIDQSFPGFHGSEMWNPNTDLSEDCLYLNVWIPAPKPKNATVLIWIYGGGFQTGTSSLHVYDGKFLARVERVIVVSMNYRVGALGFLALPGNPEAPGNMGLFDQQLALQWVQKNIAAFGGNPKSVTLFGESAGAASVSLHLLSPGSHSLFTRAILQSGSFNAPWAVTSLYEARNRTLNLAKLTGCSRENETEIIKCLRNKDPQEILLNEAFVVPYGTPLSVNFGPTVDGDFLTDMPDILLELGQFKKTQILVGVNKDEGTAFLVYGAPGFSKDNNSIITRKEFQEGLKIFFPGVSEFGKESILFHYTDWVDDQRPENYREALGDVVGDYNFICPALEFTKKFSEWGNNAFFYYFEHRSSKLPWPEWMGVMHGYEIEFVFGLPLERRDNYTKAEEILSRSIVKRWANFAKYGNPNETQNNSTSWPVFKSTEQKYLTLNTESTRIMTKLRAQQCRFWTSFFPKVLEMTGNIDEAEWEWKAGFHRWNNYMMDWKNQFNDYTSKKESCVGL
# F295A/F297A HuAChE = F295A/F297A HuAChE (Homo sapiens, UniProt P22303, F326A/F328A); assay: HuAChE inhibition kinetics
# Chain of F295A/F297A HuAChE (P22303 32-614 F326A/F328A): as the sequence (P22303 32-614 Y368A) above, with F295A, F297A, A337Y counted along it
# F295A/F338A/V407F HuAChE = F295A/F338A/V407F HuAChE (Homo sapiens, UniProt P22303, F326A/F369A/V438F); assay: HuAChE inhibition kinetics; details: for k2, carbamylation rate constant: F295A/F338A/V407F HuAChE
# Chain of F295A/F338A/V407F HuAChE (P22303 32-614 F326A/F369A/V438F): as the sequence (P22303 32-614 Y368A) above, with F295A, A337Y, F338A, V407F counted along it
# W286A HuAChE = W286A HuAChE (Homo sapiens, UniProt P22303, W317A); assay: HuAChE inhibition kinetics
# Chain of W286A HuAChE (P22303 32-614 W317A): as the sequence (P22303 32-614 Y368A) above, with W286A, A337Y counted along it
# [2] = biological target: Y72N/Y124Q/W286A/ F295L/F297V/Y337A/ V407F HuAChE (Homo sapiens, UniProt P22303, F326L/F328V/V438F/W317A/Y103N/Y155Q/Y368A); assay: HuAChE inhibition kinetics
# Chain of Y72N/Y124Q/W286A/ F295L/F297V/Y337A/ V407F HuAChE (P22303 32-614 Y103N/Y155Q/W317A/F326L/F328V/Y368A/V438F): as the sequence (P22303 32-614 Y368A) above, with Y72N, Y124Q, W286A, F295L, F297V, V407F counted along it
# Y341A HuAChE = Y341A HuAChE (Homo sapiens, UniProt P22303, Y372A); assay: HuAChE inhibition kinetics; details: for k2, carbamylation rate constant: Y341A HuAChE
# Chain of Y341A HuAChE (P22303 32-614 Y372A): as the sequence (P22303 32-614 Y368A) above, with A337Y, Y341A counted along it
# E202Q HuAChE = E202Q HuAChE (Homo sapiens, UniProt P22303, E233Q); assay: HuAChE inhibition kinetics; details: for k2, carbamylation rate constant: E202Q HuAChE
# Chain of E202Q HuAChE (P22303 32-614 E233Q): as the sequence (P22303 32-614 Y368A) above, with E202Q, A337Y counted along it
# F295A/F338A HuAChE = F295A/F338A HuAChE (Homo sapiens, UniProt P22303, F326A/F369A); assay: HuAChE inhibition kinetics
# Chain of F295A/F338A HuAChE (P22303 32-614 F326A/F369A): as the sequence (P22303 32-614 Y368A) above, with F295A, A337Y, F338A counted along it
# Y124A HuAChE = Y124A HuAChE (Homo sapiens, UniProt P22303, Y155A); assay: HuAChE inhibition kinetics
# Chain of Y124A HuAChE (P22303 32-614 Y155A): as the sequence (P22303 32-614 Y368A) above, with Y124A, A337Y counted along it
# W86A/Y337A HuAChE = W86A/Y337A HuAChE (Homo sapiens, UniProt P22303, W117A/Y368A); assay: biochemical
# Chain of W86A/Y337A HuAChE (P22303 32-614 W117A/Y368A): as the sequence (P22303 32-614 Y368A) above, with W86A counted along it
# [3] = read-out: Kd, noncovalent inhibition (competition with ATC), W86A HuAChE
# [4] = read-out: Kd, noncovalent inhibition (competition with ATC), Wild Type HuAChE
# [5] = read-out: Kd, noncovalent inhibition (competition with ATC), F338A HuAChE
# [6] = read-out: Kd, noncovalent inhibition (competition with ATC), Y337A HuAChE
# [7] = Y72N/Y124Q/W286A/F295L/F297V/Y337A HuAChE
# [8] = Y72N/Y124Q/W286A/F295L/F297V/Y337A/V407F HuAChE
# Chain of F338A HuAChE (P22303 32-614 F369A): as the sequence (P22303 32-614 Y368A) above, with A337Y, F338A counted along it
# Chain of Wild Type HuAChE (P22303 32-614): as the sequence (P22303 32-614 Y368A) above, with A337Y counted along it
# Chain of W86A HuAChE (P22303 32-614 W117A): as the sequence (P22303 32-614 Y368A) above, with W86A, A337Y counted along it
compound,measurement,setting,value
"CC(C)c1ccc(NC(=O)Oc2ccc3c(c2)C2(C)CCOC2N3C)cc1 (single isomer, unassigned; (+)) [(+)-Cymyl carbamate of physovenol, cymyl carbamate of physovenol]",Kd,W86A HuAChE; [3],5000 ± 1300 nM
same,Kd,Wild Type HuAChE; [4],1000 ± 200 nM
same,Kd,F338A HuAChE; [5],57100 ± 15000 nM
same,Kd,Y337A HuAChE; [6],2200 ± 700 nM
"CC(C)c1ccc(NC(=O)Oc2ccc3c(c2)C2(C)CCOC2N3C)cc1 (single isomer, unassigned; (-)) [(−)-Cymyl carbamate of physovenol, cymyl carbamate of physovenol]",Kd,W86A HuAChE; [3],2500 ± 200 nM
same,Kd,Wild Type HuAChE; [4],710 ± 120 nM
same,Kd,F338A HuAChE; [5],40000 ± 12000 nM
same,Kd,Y337A HuAChE; [6],2700 ± 1000 nM
"CN1CC[C@@]2(C)c3cc(OC(=O)Nc4ccccc4)ccc3N(C)[C@@H]12 [(−)-Phenserine, phenserine]",Kd,W86A HuAChE,20000 ± 9000 nM
same,"k2, carbamylation rate constant",W86A HuAChE; W86A HuAChE,1.3 ± 1.0 min⁻¹
same,Kd,E202A HuAChE,9100 ± 3600 nM
same,"k2, carbamylation rate constant",E202A HuAChE,0.2 ± 0.1 min⁻¹
same,Kd,F295A HuAChE,90 ± 40 nM
same,"k2, carbamylation rate constant",F295A HuAChE,2.1 ± 1.2 min⁻¹
same,Kd,Y133F HuAChE,7600 ± 1900 nM
same,"k2, carbamylation rate constant",Y133F HuAChE,0.3 ± 0.09 min⁻¹
same,Kd,F295L/F297V HuAChE,800 ± 360 nM
same,"k2, carbamylation rate constant",F295L/F297V HuAChE,3.0 ± 1.8 min⁻¹
same,Kd,W86F HuAChE,870 ± 340 nM
same,"k2, carbamylation rate constant",W86F HuAChE,1.3 ± 0.9 min⁻¹
same,Kd,Wild Type HuAChE,1390 ± 550 nM
same,"k2, carbamylation rate constant",Wild Type HuAChE; Wild Type HuAChE,0.9 ± 0.5 min⁻¹
same,Kd,F338A HuAChE,41300 ± 9500 nM
same,"k2, carbamylation rate constant",F338A HuAChE; F338A HuAChE,0.7 ± 0.1 min⁻¹
same,Kd,E450A HuAChE,7400 ± 1900 nM
same,"k2, carbamylation rate constant",E450A HuAChE,0.2 ± 0.04 min⁻¹
same,Kd,D74N HuAChE,3400 ± 610 nM
same,"k2, carbamylation rate constant",D74N HuAChE,0.7 ± 0.01 min⁻¹
same,Kd,Y72N HuAChE,740 ± 190 nM
same,"k2, carbamylation rate constant",Y72N HuAChE,1.7 ± 0.2 min⁻¹
same,"k2, carbamylation rate constant",F297A HuAChE,1.0 ± 0.5 min⁻¹
same,Kd,F295L/F297V/Y337A HuAChE,300 ± 6 nM
same,"k2, carbamylation rate constant",F295L/F297V/Y337A HuAChE,0.9 ± 0.2 min⁻¹
same,Kd,Y337F HuAChE,280 ± 30 nM
same,"k2, carbamylation rate constant",Y337F HuAChE,0.9 ± 0.07 min⁻¹
same,Kd,Y133A HuAChE,76000 ± 15000 nM
same,"k2, carbamylation rate constant",Y133A HuAChE,0.4 ± 0.06 min⁻¹
same,Kd,[1],120 ± 30 nM
same,Kd,HuBChE-Wild Type,9000 ± 3000 nM
same,"k2, carbamylation rate constant",HuBChE-Wild Type,0.6 ± 0.2 min⁻¹
same,"k2, carbamylation rate constant",F295A/F297A HuAChE,8.5 ± 2.5 min⁻¹
same,Kd,"F295A/F297A HuAChE; Kd, Michaelis complex (Eq. 1)",2800 ± 800 nM
same,Kd,F295A/F338A/V407F HuAChE,27200 ± 5500 nM
same,"k2, carbamylation rate constant",F295A/F338A/V407F HuAChE,0.3 ± 0.1 min⁻¹
same,Kd,W286A HuAChE,160 ± 30 nM
same,Kd,Y337A HuAChE,2750 ± 280 nM
same,"k2, carbamylation rate constant",Y337A HuAChE; Y337A HuAChE,0.8 ± 0.4 min⁻¹
same,Kd,[2],20300 ± 6100 nM
same,Kd,Y341A HuAChE,690 ± 210 nM
same,"k2, carbamylation rate constant",Y341A HuAChE,0.7 ± 0.3 min⁻¹
same,Kd,E202Q HuAChE,17400 ± 3400 nM
same,"k2, carbamylation rate constant",E202Q HuAChE,3.2 ± 1 min⁻¹
same,Kd,F295A/F338A HuAChE,30 ± 8 nM
"CNC(=O)Oc1ccc2c(c1)[C@]1(C)CCN(C)[C@@H]1N2C [(−)-Physostigmine, (−)physostigmine salicylate]","k2, carbamylation rate constant",W86A HuAChE; W86A HuAChE,0.80 ± 0.30 min⁻¹
same,"k2, carbamylation rate constant",E202A HuAChE,0.24 ± 0.05 min⁻¹
same,"k2, carbamylation rate constant",F295A HuAChE,1.60 ± 0.50 min⁻¹
same,"k2, carbamylation rate constant",Y133F HuAChE,0.13 ± 0.01 min⁻¹
same,"k2, carbamylation rate constant",Y124A HuAChE,6.0 ± 1.8 min⁻¹
same,"ki, bimolecular rate constant of carbamylation",Y124A HuAChE,150±3 × 10^−4 M^−1min^−1
same,"k2, carbamylation rate constant",F295L/F297V HuAChE,2.0 ± 0.4 min⁻¹
same,"k2, carbamylation rate constant",W86F HuAChE,0.90 ± 0.20 min⁻¹
same,"k2, carbamylation rate constant",Wild Type HuAChE; Wild Type HuAChE,1.2 ± 0.5 min⁻¹
same,"k2, carbamylation rate constant",F338A HuAChE; F338A HuAChE,0.40 ± 0.20 min⁻¹
same,"k2, carbamylation rate constant",E450A HuAChE,0.15 ± 0.01 min⁻¹
same,"k2, carbamylation rate constant",D74N HuAChE,2.40 ± 0.50 min⁻¹
same,"k2, carbamylation rate constant",Y72N HuAChE,0.9 ± 0.14 min⁻¹
same,"k2, carbamylation rate constant",F297A HuAChE,0.60 ± 0.10 min⁻¹
same,"k2, carbamylation rate constant",F295L/F297V/Y337A HuAChE,0.75 ± 0.20 min⁻¹
same,"k2, carbamylation rate constant",Y337F HuAChE,1.90 ± 0.40 min⁻¹
same,"k2, carbamylation rate constant",Y133A HuAChE,0.40 ± 0.02 min⁻¹
same,"k2, carbamylation rate constant",[1]; [7],0.20 ± 0.05 min⁻¹
same,"ki, bimolecular rate constant of carbamylation",[1]; [7],34±1.2 × 10^−4 M^−1min^−1
same,"k2, carbamylation rate constant",HuBChE-Wild Type,0.55 ± 0.05 min⁻¹
same,"k2, carbamylation rate constant",F295A/F297A HuAChE,0.6 ± 0.2 min⁻¹
same,"k2, carbamylation rate constant",W86A/Y337A HuAChE,1.2 ± 0.18 min⁻¹
same,"ki, bimolecular rate constant of carbamylation",W86A/Y337A HuAChE,866 ±130 × 10^−4 M^−1min^−1
same,"k2, carbamylation rate constant",F295A/F338A/V407F HuAChE,0.2 ± 0.03 min⁻¹
same,"k2, carbamylation rate constant",W286A HuAChE; W286A HuAChE,2.70 ± 0.80 min⁻¹
same,"ki, bimolecular rate constant of carbamylation",W286A HuAChE; W286A HuAChE,365±40 × 10^−4 M^−1min^−1
same,"k2, carbamylation rate constant",Y337A HuAChE; Y337A HuAChE,1.10 ± 0.50 min⁻¹
same,"k2, carbamylation rate constant",[2]; [8],1.25 ± 0.25 min⁻¹
same,"ki, bimolecular rate constant of carbamylation",[2]; [8],18±3 × 10^−4 M^−1min^−1
same,"k2, carbamylation rate constant",Y341A HuAChE,1.90 ± 0.30 min⁻¹
same,"k2, carbamylation rate constant",E202Q HuAChE,0.80 ± 0.20 min⁻¹
same,"k2, carbamylation rate constant",F295A/F338A HuAChE; F295A/F338A HuAChE,4.5 ± 0.9 min⁻¹
same,"ki, bimolecular rate constant of carbamylation",F295A/F338A HuAChE; F295A/F338A HuAChE,78±19 × 10^−4 M^−1min^−1
